These results are taken from PMC10785037, “Mechanisms for cardiac calcium pump activation by its substrate and a synthetic allosteric modulator using fluorescence lifetime imaging” (PNAS Nexus, 2023).

Assay type in all cases: biochemical
The target in assay [1] is T1, SERCA2a (cardiac sarcoplasmic reticulum Ca2+-ATPase) (Sus scrofa, UniProt P11607).
T1 construct: gene ATP2A2; native SERCA2a in enriched pig cardiac SR microsomes
Kind of assay: NADH-coupled ATPase assay, ten-point concentration-response (activation).

In assay [2] the target is T1, SERCA2a (cardiac sarcoplasmic reticulum Ca2+-ATPase). Kind of assay: NADH-coupled ATPase assay (activation; bell-shaped curve, aggregation suspected at high concentration). From the text: NADH-coupled ATPase assay (activation; bell-shaped curve, aggregation suspected at high concentration) on SERCA2a (cardiac sarcoplasmic reticulum Ca2+-ATPase) | CP-154526 also activates SERCA2a in the high nM to low µM range, with an observed maximal increase in Vmax

In the next assay the target is T2, Na+/K+-ATPase NKA-α1 (Sus scrofa, UniProt P05024).
T2 construct: gene ATP1A1
Kind of assay: ATPase activity assay.

Structures are written as SMILES.

T1 sequence (P11607 1-997 isoform P11607-2): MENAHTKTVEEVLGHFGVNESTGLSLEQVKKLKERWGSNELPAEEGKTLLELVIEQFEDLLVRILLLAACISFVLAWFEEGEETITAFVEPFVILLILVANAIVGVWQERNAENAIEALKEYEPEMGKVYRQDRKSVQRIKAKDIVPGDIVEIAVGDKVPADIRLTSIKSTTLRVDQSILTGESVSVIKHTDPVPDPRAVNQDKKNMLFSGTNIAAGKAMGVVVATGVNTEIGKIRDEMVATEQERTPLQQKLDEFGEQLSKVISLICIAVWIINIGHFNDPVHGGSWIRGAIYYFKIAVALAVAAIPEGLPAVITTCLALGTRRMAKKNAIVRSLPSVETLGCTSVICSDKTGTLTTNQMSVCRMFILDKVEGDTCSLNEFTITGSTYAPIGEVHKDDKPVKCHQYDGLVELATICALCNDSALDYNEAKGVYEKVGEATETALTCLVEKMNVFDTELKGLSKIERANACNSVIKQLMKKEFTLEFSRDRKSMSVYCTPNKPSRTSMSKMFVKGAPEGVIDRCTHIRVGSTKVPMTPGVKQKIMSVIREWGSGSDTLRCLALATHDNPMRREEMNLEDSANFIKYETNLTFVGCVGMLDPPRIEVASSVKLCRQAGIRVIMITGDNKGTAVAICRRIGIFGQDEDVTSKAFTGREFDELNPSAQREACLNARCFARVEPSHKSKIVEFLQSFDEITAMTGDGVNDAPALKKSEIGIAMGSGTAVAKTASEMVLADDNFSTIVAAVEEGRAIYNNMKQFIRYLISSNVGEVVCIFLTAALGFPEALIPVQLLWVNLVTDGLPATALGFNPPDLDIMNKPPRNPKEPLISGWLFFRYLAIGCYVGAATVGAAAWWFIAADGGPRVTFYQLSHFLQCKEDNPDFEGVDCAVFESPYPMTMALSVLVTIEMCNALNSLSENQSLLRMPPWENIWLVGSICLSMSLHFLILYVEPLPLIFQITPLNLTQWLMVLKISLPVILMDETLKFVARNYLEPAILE

As a reminder, the EC50 is the concentration needed to bring the measured effect to its halfway point. Higher therefore signals a less potent agent. Molecule `Cc1ccc2cccc(NC(=O)c3ccc(OC(C)C)cc3)c2n1` [CDN1163, N-(2-methylquinolin-8-yl)-4-propan-2-yloxybenzamide] displayed an EC50 in assay [1] of 2.3 µM. With `CCCCN(CC)c1nc(C)nc2c1c(C)cn2-c1c(C)cc(C)cc1C` [CP-154526, N-butyl-N-ethyl-2,5-dimethyl-7-(2,4,6-trimethylphenyl)pyrrolo[2,3-d]pyrimidin-4-amine], in assay [2], the “NADH-coupled ATPase assay (activation); bell-shaped curve, aggregation suspected” value was 28% maximal increase in Vmax at 2.5. For orientation: IC50 means the concentration that inhibits the measured activity by half. A lower IC50 goes with higher potency. On to `C[C@]12CC/C(=N\OCCN)C[C@@H]1C(=O)C[C@@H]1[C@@H]2CC[C@]2(C)C(=O)CC[C@@H]12` [istaroxime, (3E,5S,8R,9S,10R,13S,14S)-3-(2-aminoethoxyimino)-10,13-dimethyl-1,2,4,5,7,8,9,11,12,14,15,16-dodecahydrocyclopenta[a]phenanthrene-6,17-dione], for which the IC50 against Na+/K+-ATPase NKA-α1 was determined as 0.47 µM.
